Converted amounts (≈) assume the structure as drawn.
Experiments:
CCRF-CEM [1] = assay: Tested for the ability to inhibit HIV-1 (IIIB) replication in CEM cells; format: functional, cell-based; settings: Homo sapiens
CCRF-CEM [2] = assay: Tested for the ability to inhibit HIV-2 (ROD) replication in CEM cells; format: functional, cell-based; settings: Homo sapiens
[3] = molecular target: Human immunodeficiency virus type 1 reverse transcriptase (Human immunodeficiency virus 1, UniProt Q72547); assay: Tested against HIV-1 reverse transcriptase (HIV-1 RT) with poly(rA)/(dT)12-18 as template and [methyl-3H]-dTTP as competing substrate; format: functional

| SMILES | EC50 (CCRF-CEM [1]) [µg/mL] | IC50 [3] [nM] | EC50 (CCRF-CEM [2]) [µg/mL] |
| --- | --- | --- | --- |
| Nc1ncnc2c1ncn2[C@H]1CC(O)C(COP(=S)(S)OP(=O)(O)OP(=O)(O)O)O1 (stereo not given in full) | 43 (≈ 82.2 µM) |  | 50 (≈ 95.5 µM) |
| Nc1ccn([C@H]2CC(O)C(COP(=S)(S)OP(=O)(O)OP(=O)(O)O)O2)c(=O)n1 (stereo not given in full) | 97 (≈ 194 µM) |  | 123 (≈ 246 µM) |
| Cc1cn([C@H]2CC(O)C(COP(=S)(S)OP(=O)(O)OP(=O)(O)O)O2)c(=O)[nH]c1=O (stereo not given in full) | > 50 |  | > 50 |
| Cc1cn([C@H]2C[C@H](N=[N+]=[N-])[C@@H](CO[P@](=O)(O)O[P@](=O)(O)OP(=O)(O)O)O2)c(=O)[nH]c1=O [ZIDOVUDINE TRIPHOSPHATE] |  | 3 |  |

Now from value to compound, other results behind:

| EC50 (CCRF-CEM [1]) [µg/mL] | IC50 [3] [nM] | SMILES | EC50 (CCRF-CEM [2]) [µg/mL] |
| --- | --- | --- | --- |
| > 50 |  | Nc1nc(O)c2ncn([C@H]3CC(O)C(COP(=S)(S)OP(=O)(O)OP(=O)(O)O)O3)c2n1 (stereo not given in full) | > 50 |
| 0.5 (≈ 0.927 µM) | 940 | Cc1cn([C@H]2CC(N=[N+]=[N-])C(COP(=S)(S)OP(=O)(O)OP(=O)(O)O)O2)c(=O)[nH]c1=O (stereo not given in full) |  |
| > 50 |  | Nc1nc(O)c2ncn(C3O[C@H](COP(=S)(S)OP(=O)(O)OP(=O)(O)O)[C@@H](O)[C@H]3O)c2n1 (stereo not given in full) | > 50 |
| 42 (≈ 77.9 µM) |  | Nc1ncnc2c1ncn2C1O[C@H](COP(=S)(S)OP(=O)(O)OP(=O)(O)O)[C@@H](O)[C@H]1O (stereo not given in full) | 116 (≈ 215 µM) |
